Test results: paper PMC11233931, “Remodeling tumor‐associated macrophage for anti‐cancer effects by rational design of irreversible inhibition of mitogen‐activated protein kinase‐activated protein kinase 2” (MedComm, 2024)

Legend:
Assay in all cases: Eurofins kinase selectivity profile against 380 other human recombinant kinases (Table S2)
Format in all cases: biochemical
[1] = molecular target: T1, 380 human recombinant protein kinases (Homo sapiens, UniProt Q9UPZ9); conditions: ICK(h), read-out: Inhibition rate
T1 construct: purchased Eurofins (Celle Lévescault)
T1 sequence (Q9UPZ9 1-632): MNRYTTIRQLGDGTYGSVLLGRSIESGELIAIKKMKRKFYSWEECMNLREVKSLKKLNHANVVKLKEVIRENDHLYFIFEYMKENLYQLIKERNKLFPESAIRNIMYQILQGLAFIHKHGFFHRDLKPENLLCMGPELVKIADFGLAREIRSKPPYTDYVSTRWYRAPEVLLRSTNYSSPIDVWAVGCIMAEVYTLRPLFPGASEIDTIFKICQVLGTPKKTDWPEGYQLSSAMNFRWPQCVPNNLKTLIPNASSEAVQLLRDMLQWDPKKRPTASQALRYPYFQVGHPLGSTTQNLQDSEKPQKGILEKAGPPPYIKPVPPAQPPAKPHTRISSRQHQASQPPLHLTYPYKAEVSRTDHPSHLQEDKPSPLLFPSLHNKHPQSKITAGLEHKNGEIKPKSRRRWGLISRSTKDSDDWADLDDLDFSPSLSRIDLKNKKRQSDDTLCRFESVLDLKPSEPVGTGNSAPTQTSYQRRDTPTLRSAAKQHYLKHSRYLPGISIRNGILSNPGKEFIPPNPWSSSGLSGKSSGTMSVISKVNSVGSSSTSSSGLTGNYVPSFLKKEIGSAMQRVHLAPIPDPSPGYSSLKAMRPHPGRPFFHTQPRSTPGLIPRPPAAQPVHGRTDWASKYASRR
In short: (§1)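 To gauge specificity for MK2, the compound is profiled externally at various concentrations on recombinant human kinases, 380 in total.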

[2] = molecular target: T2, 380 human recombinant protein kinases (Homo sapiens, UniProt P42684); conditions: Arg(h), read-out: Inhibition rate
T2 construct: purchased Eurofins (Celle Lévescault)
T2 sequence (P42684 whole entry): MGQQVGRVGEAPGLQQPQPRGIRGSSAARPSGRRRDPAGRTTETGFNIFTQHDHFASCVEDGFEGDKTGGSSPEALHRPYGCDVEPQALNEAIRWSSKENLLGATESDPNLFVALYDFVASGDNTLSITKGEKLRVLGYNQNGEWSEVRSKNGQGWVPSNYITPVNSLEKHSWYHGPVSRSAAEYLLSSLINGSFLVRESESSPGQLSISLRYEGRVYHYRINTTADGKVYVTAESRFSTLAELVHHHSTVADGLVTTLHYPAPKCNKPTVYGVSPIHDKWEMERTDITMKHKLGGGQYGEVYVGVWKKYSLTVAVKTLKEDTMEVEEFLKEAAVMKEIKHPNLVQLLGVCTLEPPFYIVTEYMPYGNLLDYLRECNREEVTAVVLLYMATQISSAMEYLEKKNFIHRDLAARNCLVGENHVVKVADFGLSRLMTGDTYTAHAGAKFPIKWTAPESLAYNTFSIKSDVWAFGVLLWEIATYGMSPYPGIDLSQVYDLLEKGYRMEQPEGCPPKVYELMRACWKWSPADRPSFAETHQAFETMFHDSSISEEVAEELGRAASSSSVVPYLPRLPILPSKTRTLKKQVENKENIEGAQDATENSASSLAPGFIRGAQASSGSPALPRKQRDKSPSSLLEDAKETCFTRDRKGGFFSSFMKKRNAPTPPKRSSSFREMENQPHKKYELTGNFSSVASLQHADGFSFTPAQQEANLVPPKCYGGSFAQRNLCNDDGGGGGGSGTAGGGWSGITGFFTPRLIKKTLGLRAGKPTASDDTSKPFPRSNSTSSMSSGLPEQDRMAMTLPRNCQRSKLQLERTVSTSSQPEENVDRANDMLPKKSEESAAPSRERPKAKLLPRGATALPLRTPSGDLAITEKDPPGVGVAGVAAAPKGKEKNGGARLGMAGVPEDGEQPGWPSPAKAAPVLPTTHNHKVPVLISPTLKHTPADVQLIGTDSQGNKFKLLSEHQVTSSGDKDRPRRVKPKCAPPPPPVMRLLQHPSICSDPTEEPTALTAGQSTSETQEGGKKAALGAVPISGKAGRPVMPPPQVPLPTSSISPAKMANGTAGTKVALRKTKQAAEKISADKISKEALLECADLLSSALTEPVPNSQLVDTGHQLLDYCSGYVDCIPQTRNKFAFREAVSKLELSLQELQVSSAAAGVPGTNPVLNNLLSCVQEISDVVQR
In short: as §1

[3] = molecular target: T3, 380 human recombinant protein kinases (Homo sapiens, UniProt Q05513); conditions: PKCζ(h), read-out: Inhibition rate
T3 construct: purchased Eurofins (Celle Lévescault)
T3 sequence (Q05513 1-592): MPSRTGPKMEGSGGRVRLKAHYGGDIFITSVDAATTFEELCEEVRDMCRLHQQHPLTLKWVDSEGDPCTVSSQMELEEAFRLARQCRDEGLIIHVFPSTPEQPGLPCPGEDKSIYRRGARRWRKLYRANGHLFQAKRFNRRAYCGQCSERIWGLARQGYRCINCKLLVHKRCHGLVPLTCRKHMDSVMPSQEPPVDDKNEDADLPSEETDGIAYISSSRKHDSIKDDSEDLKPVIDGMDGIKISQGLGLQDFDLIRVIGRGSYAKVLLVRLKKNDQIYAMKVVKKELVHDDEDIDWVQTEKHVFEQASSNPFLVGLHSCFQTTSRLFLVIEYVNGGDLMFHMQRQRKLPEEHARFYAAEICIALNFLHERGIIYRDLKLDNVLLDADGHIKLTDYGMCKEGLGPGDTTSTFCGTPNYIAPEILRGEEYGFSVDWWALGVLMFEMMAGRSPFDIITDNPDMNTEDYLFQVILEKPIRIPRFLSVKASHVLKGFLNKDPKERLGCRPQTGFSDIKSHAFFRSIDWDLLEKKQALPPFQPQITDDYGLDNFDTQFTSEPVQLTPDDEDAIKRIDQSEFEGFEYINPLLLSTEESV
In short: as §1

[4] = molecular target: T4, 380 human recombinant protein kinases (Homo sapiens, UniProt O14965); conditions: Aurora-A(h), read-out: Inhibition rate
T4 construct: purchased Eurofins (Celle Lévescault)
T4 sequence (O14965 1-403): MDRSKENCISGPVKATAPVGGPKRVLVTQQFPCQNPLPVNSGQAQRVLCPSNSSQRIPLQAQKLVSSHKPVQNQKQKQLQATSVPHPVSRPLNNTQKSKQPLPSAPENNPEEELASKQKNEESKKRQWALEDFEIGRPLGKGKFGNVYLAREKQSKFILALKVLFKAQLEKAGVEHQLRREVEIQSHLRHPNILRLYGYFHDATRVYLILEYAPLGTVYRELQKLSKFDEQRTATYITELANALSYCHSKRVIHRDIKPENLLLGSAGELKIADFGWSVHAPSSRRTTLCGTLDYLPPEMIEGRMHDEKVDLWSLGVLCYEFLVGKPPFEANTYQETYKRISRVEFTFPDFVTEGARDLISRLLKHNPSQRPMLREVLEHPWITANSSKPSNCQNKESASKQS
In short: as §1

[5] = molecular target: T5, 380 human recombinant protein kinases (Homo sapiens, UniProt Q6DT37); conditions: MRCKγ(h), read-out: Inhibition rate
T5 construct: purchased Eurofins (Celle Lévescault)
T5 sequence (Q6DT37 whole entry): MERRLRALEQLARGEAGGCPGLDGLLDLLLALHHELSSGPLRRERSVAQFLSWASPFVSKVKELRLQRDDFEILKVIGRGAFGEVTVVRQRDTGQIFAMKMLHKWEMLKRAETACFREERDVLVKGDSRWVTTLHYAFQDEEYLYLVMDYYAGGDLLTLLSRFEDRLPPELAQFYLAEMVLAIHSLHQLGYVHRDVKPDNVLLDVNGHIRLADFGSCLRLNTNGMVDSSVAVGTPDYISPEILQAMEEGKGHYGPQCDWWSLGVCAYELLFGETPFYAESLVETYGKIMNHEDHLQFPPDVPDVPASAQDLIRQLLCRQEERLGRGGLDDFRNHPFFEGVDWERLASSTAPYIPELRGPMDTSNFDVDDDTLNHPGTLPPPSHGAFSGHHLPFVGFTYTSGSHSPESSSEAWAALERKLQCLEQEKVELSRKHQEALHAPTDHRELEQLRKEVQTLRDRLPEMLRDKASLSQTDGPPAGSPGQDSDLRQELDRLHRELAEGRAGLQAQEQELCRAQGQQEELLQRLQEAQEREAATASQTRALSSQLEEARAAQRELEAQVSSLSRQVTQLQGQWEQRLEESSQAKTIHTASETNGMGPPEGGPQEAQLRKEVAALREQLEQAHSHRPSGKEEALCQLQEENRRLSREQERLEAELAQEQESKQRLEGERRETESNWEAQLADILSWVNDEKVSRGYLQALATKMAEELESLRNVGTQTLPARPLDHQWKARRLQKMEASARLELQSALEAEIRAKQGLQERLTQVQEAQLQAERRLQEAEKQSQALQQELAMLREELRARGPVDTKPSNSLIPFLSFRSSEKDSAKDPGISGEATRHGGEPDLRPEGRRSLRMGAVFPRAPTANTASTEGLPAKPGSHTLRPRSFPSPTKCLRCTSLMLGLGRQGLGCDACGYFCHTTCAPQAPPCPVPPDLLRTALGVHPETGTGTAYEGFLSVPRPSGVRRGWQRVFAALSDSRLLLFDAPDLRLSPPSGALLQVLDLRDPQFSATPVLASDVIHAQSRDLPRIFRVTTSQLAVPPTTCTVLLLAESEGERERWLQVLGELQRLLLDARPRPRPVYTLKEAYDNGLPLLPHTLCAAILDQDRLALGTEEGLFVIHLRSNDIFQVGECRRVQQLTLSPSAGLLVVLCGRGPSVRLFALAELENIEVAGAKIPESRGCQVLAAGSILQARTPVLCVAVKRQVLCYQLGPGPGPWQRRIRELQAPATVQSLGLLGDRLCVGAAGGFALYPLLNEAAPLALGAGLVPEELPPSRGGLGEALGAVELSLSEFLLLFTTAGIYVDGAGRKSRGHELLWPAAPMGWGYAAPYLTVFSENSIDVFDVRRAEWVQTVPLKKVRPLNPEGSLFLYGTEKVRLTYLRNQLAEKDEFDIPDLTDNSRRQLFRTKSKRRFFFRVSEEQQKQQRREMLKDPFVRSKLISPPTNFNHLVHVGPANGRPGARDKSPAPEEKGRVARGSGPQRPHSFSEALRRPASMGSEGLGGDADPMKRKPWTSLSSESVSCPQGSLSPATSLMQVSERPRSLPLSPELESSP
In short: as §1

[6] = molecular target: T6, 380 human recombinant protein kinases (Homo sapiens, UniProt Q9HCP0); conditions: CK1γ1(h), read-out: Inhibition rate
T6 construct: purchased Eurofins (Celle Lévescault)
T6 sequence (Q9HCP0 whole entry): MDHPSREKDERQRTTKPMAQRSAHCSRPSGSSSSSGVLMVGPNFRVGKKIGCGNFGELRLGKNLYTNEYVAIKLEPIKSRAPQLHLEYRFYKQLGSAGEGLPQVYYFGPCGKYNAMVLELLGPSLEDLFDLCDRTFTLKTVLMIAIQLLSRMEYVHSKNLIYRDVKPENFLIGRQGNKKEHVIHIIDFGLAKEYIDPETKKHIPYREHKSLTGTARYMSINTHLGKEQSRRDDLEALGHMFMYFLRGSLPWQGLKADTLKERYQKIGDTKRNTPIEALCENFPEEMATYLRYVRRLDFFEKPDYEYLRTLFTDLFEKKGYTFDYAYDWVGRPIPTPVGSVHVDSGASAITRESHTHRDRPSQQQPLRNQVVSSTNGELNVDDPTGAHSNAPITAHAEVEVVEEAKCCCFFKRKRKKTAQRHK
In short: as §1

[7] = molecular target: T7, 380 human recombinant protein kinases (Homo sapiens, UniProt Q9H2X6); conditions: HIPK2(h), read-out: Inhibition rate
T7 construct: purchased Eurofins (Celle Lévescault)
T7 sequence (Q9H2X6 whole entry): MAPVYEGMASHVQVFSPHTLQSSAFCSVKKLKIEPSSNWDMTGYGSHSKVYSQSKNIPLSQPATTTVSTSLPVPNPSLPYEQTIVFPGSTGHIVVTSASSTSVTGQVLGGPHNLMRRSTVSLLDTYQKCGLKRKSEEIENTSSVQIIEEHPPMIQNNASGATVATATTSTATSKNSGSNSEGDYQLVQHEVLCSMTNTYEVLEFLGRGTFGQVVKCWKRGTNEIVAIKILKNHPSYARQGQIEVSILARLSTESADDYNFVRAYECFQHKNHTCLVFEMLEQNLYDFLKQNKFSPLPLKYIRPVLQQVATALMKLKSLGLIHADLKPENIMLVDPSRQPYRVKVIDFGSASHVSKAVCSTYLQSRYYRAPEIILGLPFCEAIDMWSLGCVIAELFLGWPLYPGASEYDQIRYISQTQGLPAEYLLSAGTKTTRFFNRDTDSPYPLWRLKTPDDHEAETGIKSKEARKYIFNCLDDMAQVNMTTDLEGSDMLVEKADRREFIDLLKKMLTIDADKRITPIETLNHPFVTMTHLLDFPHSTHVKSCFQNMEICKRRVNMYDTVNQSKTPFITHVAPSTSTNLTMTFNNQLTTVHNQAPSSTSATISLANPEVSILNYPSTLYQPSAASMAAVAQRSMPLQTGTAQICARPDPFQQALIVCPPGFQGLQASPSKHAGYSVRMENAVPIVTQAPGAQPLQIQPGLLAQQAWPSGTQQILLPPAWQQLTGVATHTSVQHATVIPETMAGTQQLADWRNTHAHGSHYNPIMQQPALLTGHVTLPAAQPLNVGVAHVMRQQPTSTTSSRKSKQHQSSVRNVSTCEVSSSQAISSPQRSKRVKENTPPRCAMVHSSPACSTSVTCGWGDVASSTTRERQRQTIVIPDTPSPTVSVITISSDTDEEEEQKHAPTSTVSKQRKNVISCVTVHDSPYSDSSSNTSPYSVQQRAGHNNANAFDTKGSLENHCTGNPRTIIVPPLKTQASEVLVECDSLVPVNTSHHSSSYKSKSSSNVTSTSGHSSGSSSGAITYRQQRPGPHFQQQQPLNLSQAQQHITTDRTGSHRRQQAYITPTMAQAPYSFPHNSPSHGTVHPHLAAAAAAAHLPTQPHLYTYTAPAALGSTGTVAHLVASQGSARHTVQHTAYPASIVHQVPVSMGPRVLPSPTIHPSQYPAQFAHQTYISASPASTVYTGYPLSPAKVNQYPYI
In short: as §1

Compound: C=CC(=O)Nc1cc(-c2cc(-c3cc4c([nH]3)CCNC4=O)ccn2)ccc1OC(F)(F)F [compound 11]
- inhibition at 0.01 µM ([1]; 10 nM): 3%
- inhibition at 0.1 µM ([1]; 100 nM): 18%
- inhibition at 1 µM ([1]; 1000 nM): 8%
- inhibition at 0.01 µM ([2]; 10 nM): 1%
- inhibition at 0.1 µM ([2]; 100 nM): 2%
- inhibition at 1 µM ([2]; 1000 nM): 6%
- inhibition at 0.01 µM ([3]; 10 nM): -5%
- inhibition at 0.1 µM ([3]; 100 nM): -4%
- inhibition at 1 µM ([3]; 1000 nM): -8%
- inhibition at 0.01 µM ([4]; 10 nM): -1%
- inhibition at 0.1 µM ([4]; 100 nM): 1%
- inhibition at 1 µM ([4]; 1000 nM): 7%
- inhibition at 0.01 µM ([5]; 10 nM): -13%
- inhibition at 0.1 µM ([5]; 100 nM): 2%
- inhibition at 1 µM ([5]; 1000 nM): 12%
- inhibition at 0.01 µM ([6]; 10 nM): 0%
- inhibition at 0.1 µM ([6]; 100 nM): 14%
- inhibition at 1 µM ([6]; 1000 nM): 56%
- inhibition at 0.01 µM ([7]; 10 nM): -13%
- inhibition at 0.1 µM ([7]; 100 nM): -9%
- inhibition at 1 µM ([7]; 1000 nM): 3%
